Earlier results on one molecule are cited in patent publication US12359156B2, “Platform and method for testing antibiotic sensitivity of a polymicrobial infection” (Wisconsin Alumni Research Foundation, priority 2018, dated 2025).

The subject of the series is infection (patients' bacterial pathogens). The conditions noted are these: phase 3 clinical trial.

On to `CO/N=C(\C(=O)N[C@@H]1C(=O)N2C(C(=O)O)=C(COC(C)=O)CS[C@H]12)c1csc(N)n1` [cefotaxime], for which the “patients who responded to the antibiotic therapy” value (patients with a "resistant" antibiotic sensitivity test result) is given as 64%. In addition, where the note is “patients with a "sensitive" antibiotic sensitivity test result, best case scenario”, the “patients who would respond to the antibiotic therapy” value is given as 93%.
